Reference: patent publication US20260070902A1, “SULFONYL DERIVATIVES AS CCR6 INHIBITORS” (Hoffmann-La Roche Inc., priority 2022, published 2026)

Tests used:
human CCR6 [1] = molecular target: T1, human CCR6 (Homo sapiens, UniProt P51684); assay: Human CCR6-CRE reporter assay; type: cell-based; set-up: The second construct contained the open reading frame of human CCR6 in the pUNO1 backbone; host or cells: 293FT cells; conditions: relative -Log IC50; 293FT cells transfected with human CCR6 and CRE-luciferase reporter; 6 μM Forskolin, 6 nM CCL20; 5 h
T1 sequence (P51684 1-374): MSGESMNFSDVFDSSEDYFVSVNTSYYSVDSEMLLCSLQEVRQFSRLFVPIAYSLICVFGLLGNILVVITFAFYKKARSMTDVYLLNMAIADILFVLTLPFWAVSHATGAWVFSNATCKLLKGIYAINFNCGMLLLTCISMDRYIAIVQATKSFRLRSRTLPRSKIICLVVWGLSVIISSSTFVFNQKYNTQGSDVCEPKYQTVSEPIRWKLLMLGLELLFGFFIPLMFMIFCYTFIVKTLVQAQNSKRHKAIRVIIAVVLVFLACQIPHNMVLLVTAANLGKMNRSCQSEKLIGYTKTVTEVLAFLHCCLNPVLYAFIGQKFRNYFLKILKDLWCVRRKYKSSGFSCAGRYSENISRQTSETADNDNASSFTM
In short: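 293FT cells transiently co-transfected with human CCR6 and a CRE-luc2P reporter, used 48 h later. Compounds incubated with cells in medium containing 6 μM Forskolin and 6 nM CCL20 (assay-medium levels), 0.1% DMSO final, 5 h at 37° C; luminescence read, relative −Log IC50 from four-parameter fit.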

human CCR6 [2] = molecular target: T1, human CCR6; assay: CHO-K1 CCR6 chemotaxis assay towards CCL20; type: cell-based; conditions: relative -Log IC50; CHO-K1 cells overexpressing human CCR6; migration towards 100 ng/ml CCL20; 4 h
From the text: CHO-K1 CCR6 Chemotaxis Assay Towards CCL20
Cells overexpressing human CCR6 were used in the chemotaxis assay (DiscoverX, cAMP Hunter™ CHO-K1 CCR6 Gi Cell Line). Growth medium of these cells consisted of DMEM/F12, non-essential Amino acids (1×NEAA, Gibco 11140050), 10% FBS and 1× pen/strep (Gibco 15140). For the chemotaxis assay, Corning Transwell plates were used with a pore size of 8 m (Corning 351164). Cells were harvested using trypsin and diluted to 4*10^6 cells/ml in chemotaxis medium (DMEM, 0.25% BSA, pen/strep). Compounds were four-fold serially diluted in DMSO. Further dilutions were made in chemotaxis medium. Cells were incubated with test compounds for 30 min at 37° C. prior to initiation of the assay (2*10^6 cells/ml). Final DMSO concentration in the assay was 0.2%. Wells of the Transwell plates were filled with 200 μl chemotaxis medium containing 100 ng/ml CCL20 (R&D systems 360-MP). 50 μl of the cell/compound suspension was added to the inserts of the Transwell plates (100,000 cells/insert). The Transwell plates were placed in an incubator at 37° C., 5% CO2 for 4 h. After 4 h, the number of migrated cells was quantified using CellTiter Glo (Promega). Percentage inhibition values were calculated based on the low and high signal obtained with 0.2% DMSO in chemotaxis medium without and with CCL20, respectively. The relative −Log IC50 was determined with GraphPad Prism 9 using a four-parameter dose-response model.

Row | Structure (SMILES) | IC50 (human CCR6 [1]) | IC50 (human CCR6 [2])
1 | CNC(=O)c1cccc(-c2ccc(S(=O)(=O)[C@H]3CC[C@H](Nc4ccc(S(F)(F)(F)(F)F)cc4)CC3)cc2)c1 [Example 21, N-methyl-4′-{[trans-4-{[4-(pentafluoro-λ^6-sulfanyl)phenyl]Amino}cyclohexyl]sulfonyl}-[1,1′-biphenyl]-3-carboxamide] | 31.6 nM | 12.6 nM
2 | NC(=O)c1cccc(-c2ccc(S(=O)(=O)[C@H]3CC[C@H](Nc4ccc(S(F)(F)(F)(F)F)cc4)CC3)cc2)c1 [Example 23, 4′-{[trans-4-{[4-(pentafluoro-λ^6-sulfanyl)phenyl]Amino}cyclohexyl]sulfonyl}-[1,1′-biphenyl]-3-carboxamide] | 50.1 nM | 50.1 nM
3 | O=S(=O)(c1ccc(-c2cn3ccnc3cn2)cc1)N1CCC(Nc2ccc(S(F)(F)(F)(F)F)cc2)CC1 [Example 24, 1-(4-{imidazo[1,2-a]pyrazin-6-yl}benzenesulfonyl)-N-[4-(pentafluoro-λ^6-sulfanyl)phenyl]piperidin-4-amine] | 200 nM | 501 nM
4 | CC(C)c1nnc2ccc(-c3ccc(S(=O)(=O)N4CCC(Nc5ccc(S(F)(F)(F)(F)F)cc5)CC4)cc3)cn12 [Example 28, N-[4-(pentafluoro-λ^6-sulfanyl)phenyl]-1-{4-[3-(propan-2-yl)-[1,2,4]triazolo[4,3-a]pyridin-6-yl]benzenesulfonyl}piperidin-4-amine] | 31.6 nM | 5.01 nM
5 | CC(C)c1cnc2ccc(-c3ccc(S(=O)(=O)N4CCC(Nc5ccc(S(F)(F)(F)(F)F)cc5)CC4)cc3)cn12 [Example 29, N-[4-(pentafluoro-λ^6-sulfanyl)phenyl]-1-{4-[3-(propan-2-yl)imidazo[1,2-a]pyridin-6-yl]benzenesulfonyl}piperidin-4-amine] | 39.8 nM | 50.1 nM
6 | O=S(=O)(c1ccc(-c2ccc3nncn3c2)cc1)[C@H]1CC[C@H](Nc2ccc(S(F)(F)(F)(F)F)cc2)CC1 [Example 36, 4-(pentafluoro-λ^6-sulfanyl)-N-[trans-4-(4-{[1,2,4]triazolo[4,3-a]pyridin-6-yl}benzenesulfonyl)cyclohexyl]aniline] | 126 nM | 1580 nM
7 | NC(=O)c1n[nH]c2ccc(-c3ccc(S(=O)(=O)[C@H]4CC[C@H](Nc5ccc(S(F)(F)(F)(F)F)cc5)CC4)cc3)cc12 [Example 37, 5-(4-{[trans-4-{[4-(pentafluoro-λ^6-sulfanyl)phenyl]Amino}cyclohexyl]sulfonyl}phenyl)-1H-indazole-3-carboxamide] | 63.1 nM | 3.98 nM
8 | NC(=O)c1nnc2ccc(-c3ccc(S(=O)(=O)[C@H]4CC[C@H](Nc5ccc(S(F)(F)(F)(F)F)cc5)CC4)cc3)cn12 [Example 39, 6-(4-{[trans-4-{[4-(pentafluoro-λ^6-sulfanyl)phenyl]Amino}cyclohexyl]sulfonyl}phenyl)-[1,2,4]triazolo[4,3-a]pyridine-3-carboxamide] | 251 nM | 79.4 nM
9 | Cc1cn2cc(-c3ccc(S(=O)(=O)[C@H]4CC[C@H](Nc5ccc(S(F)(F)(F)(F)F)cc5)CC4)cc3)ncc2n1 [Example 43, 4-(pentafluoro-λ^6-sulfanyl)-N-[trans-4-(4-{2-methylimidazo[1,2-a]pyrazin-6-yl}benzenesulfonyl)cyclohexyl]aniline] | 158 nM | 316 nM
10 | CNC(=O)c1ccc(-c2ccc(S(=O)(=O)[C@H]3CC[C@H](Nc4ccc(S(F)(F)(F)(F)F)cc4)CC3)cc2)nc1 [Example 47, N-methyl-6-(4-{[trans-4-{[4-(pentafluoro-λ^6-sulfanyl)phenyl]Amino}cyclohexyl]sulfonyl}phenyl)pyridine-3-carboxamide] | 63.1 nM | 794 nM
11 | NC(=O)c1ccc(-c2ccc(S(=O)(=O)[C@H]3CC[C@H](Nc4ccc(S(F)(F)(F)(F)F)cc4)CC3)cc2)nc1 [Example 49, 6-(4-{[trans-4-{[4-(pentafluoro-λ^6-sulfanyl)phenyl]Amino}cyclohexyl]sulfonyl}phenyl)pyridine-3-carboxamide] | 79.4 nM | 501 nM
12 | O=C1NCCc2cc(-c3ccc(S(=O)(=O)[C@H]4CC[C@H](Nc5ccc(S(F)(F)(F)(F)F)cc5)CC4)cc3)ccc21 [Example 61, 6-(4-{[trans-4-{[4-(pentafluoro-λ^6-sulfanyl)phenyl]Amino}cyclohexyl]sulfonyl}phenyl)-1,2,3,4-tetrahydroisoquinolin-1-one] | 126 nM | 31.6 nM

Further compounds by falling IC50 (human CCR6 [1]), results first:

Row | IC50 (human CCR6 [1]) | IC50 (human CCR6 [2]) | Structure (SMILES)
13 | 251 nM | 15.8 nM | N#Cc1nnc2ccc(-c3ccc(S(=O)(=O)[C@H]4CC[C@H](Nc5ccc(S(F)(F)(F)(F)F)cc5)CC4)cc3)cn12 [Example 42, 6-(4-{[trans-4-{[4-(pentafluoro-λ^6-sulfanyl)phenyl]Amino}cyclohexyl]sulfonyl}phenyl)-[1,2,4]triazolo[4,3-a]pyridine-3-carbonitrile]
14 | 200 nM | 15.8 nM | O=C1NCc2cc(-c3ccc(S(=O)(=O)[C@H]4CC[C@H](Nc5ccc(S(F)(F)(F)(F)F)cc5)CC4)cc3)ccc21 [Example 58, 5-(4-{[trans-4-{[4-(pentafluoro-λ^6-sulfanyl)phenyl]Amino}cyclohexyl]sulfonyl}phenyl)-2,3-dihydro-1H-isoindol-1-one]
15 | 158 nM | 158 nM | O=S(=O)(c1ccc(-c2cn3ccnc3cn2)cc1)[C@H]1CC[C@H](Nc2ccc(S(F)(F)(F)(F)F)cc2)CC1 [Example 44, 4-(pentafluoro-λ^6-sulfanyl)-N-[trans-4-(4-{imidazo[1,2-a]pyrazin-6-yl}benzenesulfonyl)cyclohexyl]aniline]
16 | 158 nM | 15.8 nM | O=C1Cc2ccc(-c3ccc(S(=O)(=O)[C@H]4CC[C@H](Nc5ccc(S(F)(F)(F)(F)F)cc5)CC4)cc3)cc2N1 [Example 59, 6-(4-{[trans-4-{[4-(pentafluoro-λ^6-sulfanyl)phenyl]Amino}cyclohexyl]sulfonyl}phenyl)-2,3-dihydro-1H-indol-2-one]
17 | 158 nM | 7.94 nM | O=C1NCCc2ccc(-c3ccc(S(=O)(=O)[C@H]4CC[C@H](Nc5ccc(S(F)(F)(F)(F)F)cc5)CC4)cc3)cc21 [Example 60, 7-(4-{[trans-4-{[4-(pentafluoro-λ^6-sulfanyl)phenyl]Amino}cyclohexyl]sulfonyl}phenyl)-1,2,3,4-tetrahydroisoquinolin-1-one]
18 | 63.1 nM | 398 nM | CN(C)C(=O)c1cccc(-c2ccc(S(=O)(=O)[C@H]3CC[C@H](Nc4ccc(S(F)(F)(F)(F)F)cc4)CC3)cc2)c1 [Example 19, N,N-dimethyl-4′-{[trans-4-{[4-(pentafluoro-λ^6-sulfanyl)phenyl]Amino}cyclohexyl]sulfonyl}-[1,1′-biphenyl]-3-carboxamide]
19 | 63.1 nM | 7.94 nM | N#Cc1cnc2ccc(-c3ccc(S(=O)(=O)[C@H]4CC[C@H](Nc5ccc(S(F)(F)(F)(F)F)cc5)CC4)cc3)cn12 [Example 33, 6-(4-{[trans-4-{[4-(pentafluoro-λ^6-sulfanyl)phenyl]Amino}cyclohexyl]sulfonyl}phenyl)imidazo[1,2-a]pyridine-3-carbonitrile]
20 | 50.1 nM | 251 nM | COCc1nnc2ccc(-c3ccc(S(=O)(=O)N4CCC(Nc5ccc(S(F)(F)(F)(F)F)cc5)CC4)cc3)cn12 [Example 30, 1-{4-[3-(methoxymethyl)-[1,2,4]triazolo[4,3-a]pyridin-6-yl]benzenesulfonyl}-N-[4-(pentafluoro-λ^6-sulfanyl)phenyl]piperidin-4-amine]
21 | 39.8 nM | 100 nM | CNC(=O)c1ccc(-c2ccc(S(=O)(=O)[C@H]3CC[C@H](Nc4ccc(S(F)(F)(F)(F)F)cc4)CC3)cc2)cn1 [Example 22, N-methyl-5-(4-{[trans-4-{[4-(pentafluoro-λ^6-sulfanyl)phenyl]Amino}cyclohexyl]sulfonyl}phenyl)pyridine-2-carboxamide]
22 | 39.8 nM | 39.8 nM | CNC(=O)c1cc(-c2ccc(S(=O)(=O)[C@H]3CC[C@H](Nc4ccc(S(F)(F)(F)(F)F)cc4)CC3)cc2)ccn1 [Example 48, N-methyl-4-(4-{[trans-4-{[4-(pentafluoro-λ^6-sulfanyl)phenyl]Amino}cyclohexyl]sulfonyl}phenyl)pyridine-2-carboxamide]
